doi:10.1101/2025.03.14.643404, “A Bivalent Molecular Glue Linking Lysine Acetyltransferases to Oncogene-induced Cell Death” (bioRxiv, 2025)

How the values were obtained:
DAUDI = assay: Cell viability, 7 days compound treatment (Cell Titer-Glo), DAUDI; format: cell-based; conditions: Homo sapiens, 168 h, read-out: IC50 of antiproliferation
Method: Fifteen thousand cells were seeded in 100 μl of media per well of a U-bottom 96-well plate and treated with digitally dispensed drugs (Tecan D300e) for the indicated times and doses. After 96 hours, plates were centrifuged for 750 rpm for 3 minutes, and old media was exchanged for 100 μl of fresh media. Drug treatment was then repeated at the indicated doses. 72 hours following media change, cells were transferred to 96 well flat-bottom opaque plates. Viability was measured by adding 25 μL Cell Titer-Glo reagent (Promega G7570) to each well and luminescence was measured (BMG Labtech Pherastar FS). The background luminescence was subtracted, and the signal was normalized to DMSO-treated cells. IC50 measurements on cell lines were calculated using at least three biological replicates by separate cell passages. Fit of dose–response curves to data and statistical analysis was performed using GraphPad PRISM using the four-parameter log(inhibitor) vs response function.

H3K27ac = assay: ChIP-seq for H3K27ac in SUDHL5; format: cell-based, human; conditions: SUDHL5, 1 nM, 1 hour
Method: 25–30 million cells were treated with TCIP3 or DMSO for indicated timepoints. Cells were washed in PBS containing TCIP3 or DMSO and crosslinked for 11 min in CiA Fix Buffer (50 mM HEPES pH 8.0, 1 mM EDTA, 0.5 mM EGTA, 100 mM NaCl) with addition of formaldehyde to a final concentration of 1%. The crosslinking reaction was quenched by glycine added at 0.125 M final concentration. Crosslinked cells were centrifuged at 1,000 × g for 5 min. […] Library size distributions were confirmed using an Agilent Bioanalyzer and High Sensitivity DNA reagents (Agilent 5067) and concentrations determined by qPCR. […]
The data quality was checked using fastq (https://www.bioinformatics.babraham.ac.uk/projects/fastqc/). The raw reads were trimmed from adapters with cutadapt (parameters: -a […] -A […]) and raw reads were aligned to hg38 human genome assembly using bowtie2 (parameters: --local --maxins 1000). Low quality reads, duplicated reads and reads with multiple alignments were removed using samtools[120] and Picard (https://broadinstitute.github.io/picard/). macs2[121] was used to map position of peaks with FDR cutoff of 0.05. […] All browser tracks and metaprofiles shown were calculated with sequence-depth-normalized, replicate-merged (bigWigMerge[125]) and, for ChIP-seq, input-subtracted data (deeptools bigWigCompare). […]

c-MYC mRNA = assay: RT-qPCR of c-MYC transcripts in SUDHL5; format: cell-based, human; conditions: SUDHL5, 1 nM
Method: Cells were plated at 1M/mL and harvested in TRIsure (Bioline 38033). RNA was extracted using Direct-zol RNA MicroPrep columns (Zymo R2062) treated with DNAseI. cDNA was prepared (Meridian Bioscience BIO-65054) and used for qPCR (Meridian Bioscience BIO-94050) using an AppliedBiosystems QuantStudio 6Pro. Primer sequences were the following:
• c-MYC fwd: […]; • c-MYC rev: […]; • GAPDH fwd: […]; • GAPDH rev: […].

CNC(=O)COc1cc2cc(Nc3nc(N4CCC(C(=O)N5CCN(CCC(=O)N6CCC(n7nc(N8CCCc9cc(-c%10cnn(C)c%10)c(C(F)F)cc98)c8c7CCN(C(=O)NC)C8)CC6)CC5)CC4)ncc3Cl)cc(OC)c2n(C)c1=O [TCIP3]
IC50 (DAUDI): 6.9 nM
H3K27ac peaks gained (H3K27ac): 533
H3K27ac peaks lost (H3K27ac): 5,216
t1/2 of c-MYC mRNA decrease (c-MYC mRNA): 33 min
